{"source": "patent US10682360B2", "about": "“Antimicrobial formulations and applications thereof” (priority 2014, dated 2020)", "key": {"[1]": {"test_system": "Pseudomonas aeruginosa 9027", "assay": "ASTM E2315 suspension time-kill procedure", "assay_type": "cell-based", "details": "P. aeruginosa 9027, contact time 2 hours; for % Reduction / Log10 reduction: vs time zero control", "procedure": "(§1) Efficacy of these substances, alone and in combination, was tested against two strains of bacteria using the ASTM E2315 test method.\n(1) Pseudomonas aeruginosa 9027: This is a Gram-negative, rod-shaped microorganism with a single flagellum. P. aeruginosa grows optimally under aerobic conditions but can use various electron acceptors to respire anaerobically as needed. This organism is an opportunistic pathogen with the ability to form resilient biofilms in human tissues under anaerobic conditions.\n(§2) ASTM E2315 is a quantitative test method designed to assess changes in the populations of a microorganism in an antimicrobial liquid suspension. The method can be conducted using contact times ranging from 10 seconds to 24 hours. The test method uses non-antimicrobial agents as controls to establish baselines for microbial reductions.\n(§3) Test microorganisms were prepared in liquid culture medium. Suspensions of test microorganisms were standardized as needed by dilution in a buffered saline solution. Test and control substances were dispensed in identical volumes to sterile vessels.\n(§4) Independently, test and control substances were inoculated with each test microorganism, then mixed and incubated. Control substances were immediately harvested and used to represent the concentration present at the start of the test.\n(§5) At the conclusion of the contact time, a volume of liquid test solution was harvested and chemically neutralized. Test microorganisms were spun down and the cell pellet was resuspended in phosphate buffered saline (PBS) prior to inoculation of the test systems. 10 mL volumes of Dey/Engley neutralizer broth supplemented with 5% magnesium chloride and 35% polysorbate 80 were used for chemical neutralization. After chemical neutralization, test systems were filtered using a filtration manifold to recover surviving microorganisms.\n(§6) Dilutions of neutralized test solution were assayed using appropriate growth media to determine surviving microorganism levels at each respective contact time. Reductions of microorganisms were calculated by comparing initial microbial concentrations to final microbial concentrations. The limit of detection for the assay was 10 CFU/mL.\n(§7) Percent reduction of bacterial population was calculated according to the following equation, where A=number of viable test microorganisms in the test substance after the contact time and B=number of viable test microorganisms in the control substance immediately after inoculation. Log10 reduction was also calculated.\n(§8) The experimental procedure of Example 1 was followed with the exception of substitutions of some antibiotics. Cefuroxime (a second generation cephalosporin) and/or ceftazidime (a third generation cephalosporin active against P. aeruginosa) were used to replace cefazolin."}, "[2]": {"test_system": "Staphylococcus aureus 33592 (MRSA)", "assay": "ASTM E2315 suspension time-kill procedure", "assay_type": "cell-based", "details": "contact time 2 hours; for CFU/mL / % Reduction / Log10 reduction: S. aureus 33592; for % Reduction / Log10 reduction: vs time zero control", "procedure": "as §1\n(2) Staphylococcus aureus 33592 (MRSA): This is a Gram-positive, coccus-shaped aerobe that is resistant to methicillin, a penicillin derivative. Rapid reproduction and resistance to antibiotics can make S. aureus infections particularly difficult to treat. MRSA bacteria are resistant to drying and can survive on surfaces and fabrics for an extended period of time.\nas §2, §3, §4, §5, §6, §7, §8"}, "[3]": {"details": "Example 2, time zero control 3.35 × 10^7 CFU/mL"}}}
{"compound": "Polymyxin B [Test 5]", "values": [{"measurement": "CFU/mL", "setting": "[1]; Example 1, time zero control 1.80 × 10^6 CFU/mL, limit of detection 10 CFU/mL", "value": "<1.00 × 10^1 CFU/mL"}, {"measurement": "% Reduction", "setting": "[1]; Example 1", "value": ">99.9996", "unit": "%"}, {"measurement": "Log10 reduction", "setting": "[1]; Example 1", "value": ">5.45"}, {"measurement": "antibacterial effect / interaction of the antibiotics, in words", "setting": "[1]", "value": "essentially complete elimination"}]}
{"compound": "CO/N=C(\\C(=O)N[C@@H]1C(=O)N2C(C(=O)O)=C(COC(N)=O)CS[C@H]12)c1ccco1", "note": "[Test 8, Cefuroxime]", "values": [{"measurement": "CFU/mL", "setting": "[2]; Example 2, time zero control 1.75 × 10^6 CFU/mL", "value": "1.50 × 10^6 CFU/mL"}, {"measurement": "% Reduction", "setting": "[2]; Example 2", "value": 14.29, "unit": "%"}, {"measurement": "Log10 reduction", "setting": "[2]; Example 2", "value": 0.07}, {"measurement": "antibacterial effect / interaction of the antibiotics, in words", "setting": "[2]; S. aureus 33592 (MRSA)", "value": "less activity against MRSA than the first generation cephalosporin, cefazolin"}]}
{"compound": "Cc1nnc(SCC2=C(C(=O)O)N3C(=O)[C@@H](NC(=O)Cn4cnnn4)[C@H]3SC2)s1", "note": "[Test 1, Cefazolin]", "values": [{"measurement": "CFU/mL", "setting": "[2]; Example 1, time zero control 2.85 × 10^6 CFU/mL, ambient 25° C.", "value": "1.44 × 10^5 CFU/mL"}, {"measurement": "% Reduction", "setting": "[2]; Example 1", "value": 94.96, "unit": "%"}, {"measurement": "Log10 reduction", "setting": "[2]; Example 1", "value": 1.30}]}
{"compound": "Polymyxin B [Test 11]", "values": [{"measurement": "CFU/mL", "setting": "[1]; [3]", "value": "1.00 × 10^3 CFU/mL"}, {"measurement": "% Reduction", "setting": "[1]; Example 2", "value": 99.997, "unit": "%"}, {"measurement": "Log10 reduction", "setting": "[1]; Example 2", "value": 4.55}]}
{"compound": "CO/N=C(\\C(=O)N[C@@H]1C(=O)N2C(C(=O)O)=C(COC(N)=O)CS[C@H]12)c1ccco1", "note": "[Test 12, Cefuroxime]", "values": [{"measurement": "CFU/mL", "setting": "[1]; [3]", "value": "2.00 × 10^5 CFU/mL"}, {"measurement": "% Reduction", "setting": "[1]; Example 2", "value": 99.44, "unit": "%"}, {"measurement": "Log10 reduction", "setting": "[1]; Example 2", "value": 2.25}, {"measurement": "antibacterial effect / interaction of the antibiotics, in words", "setting": "[1]", "value": "bactericidal"}]}
